# In patent US9433616B2, “Methods and compositions for decreasing saliva production” (priority 2005, dated 2016):
# How the values were obtained:
# [1] = test system: muscarinic receptors in the muscles of the eye; conditions: cited from earlier work
# [2] = test system: clozapine-induced sialorrhea; conditions: in vivo; cited from earlier work
# [3] = test system: salivation in patients with Parkinson's disease; conditions: in vivo; cited from earlier work
# [4] = test system: dryness of the mouth in human subjects; conditions: in vivo
# Procedure: This was an evaluation of the placebo and drug-containing disks conducted in a closed room while sitting and carrying on an otherwise normal conversation.
# No food or drink intake for approximately 2 hours before test. One disk was inserted in the mouth between gum and cheek on the lower right quadrant of mouth.
# All sat in a comfortable room and had not eaten for at least one hour before.
# [5] = test system: Parkinson's Disease (PD) patients suffering from sialorrhea; conditions: human, in vivo
# From the text: They were instructed to apply the drops to their tongues on an as needed basis.
# [6] = test system: Parkinson's Disease (PD) patients complaining of sialorrhea; conditions: human, in vivo, po
# Procedure: The aim was to assess personal impression by the patients of their sialorrhea symptoms, including, drooling, speech performance, and social interference, as well as the presence of side effects, such as blurred vision, confusion, somnolence, tachycardia, hypotension, or any other discomforting sensation. The patients were evaluated for 2 hours in an outpatient clinic while resting in comfortable armchairs. They rated themselves on a visual analog scale by marking a line representing the amount of disability incurred by their sialorrhea both before and after the treatment by responding to the question: “How would you grade the effect of the drops that you were administered on your sialorrhea?”
# The patients were fluctuating PD patients evaluated in the ON state in the morning, having eaten no food for one hour before the test. […] The patients were instructed to perform some chewing like movements in order to distribute the drug homogeneously. The patients were instructed to fill the visual-analogical scale 1 hour after drug intake. In addition, they were asked about the latency of the effect, if any, and if the effect persisted before leaving.
# [7] = test system: sialorrhea in PD patients; conditions: human, in vivo
# [8] = test system: salivary drying in healthy volunteers; conditions: in vivo
# Procedure: The time of first noticeable dryness in the mouth and the time to complete disintegration of the film were noted. Comments about adverse events, taste, and tolerance were also recorded by the participants.
# The secondary aims of this study were to determine: time of first noticeable dryness in the mouth, time to complete disintegration of the film, and the acceptability and tolerance of the bioadhesive buccal films by the subject.
# A blinded randomized crossover study in healthy volunteers.
# In each treatment, the product was blind labeled.
# A thin film was removed from an individually wrapped pouch and placed in the inner cheek opposite the molars nearest to the submandibular gland. It was positioned with the fingers and the mucoadhesive property facilitated its adhesion.
# Dissolve period: the dissolve period of the film was noted. It was defined as the time after which the film was no longer felt in the oral cavity.
# The volunteer recorded the tolerance to the buccal mucosa and overall feel during testing.
# [9] = test system: excessive sialorrhea in children with developmental disabilities; conditions: cited from earlier work
structure (smiles),measurement,setting,value
CN(C)CCOC(=O)C(c1ccccc1)C1(O)CCCC1 (stereo not shown) [cyclopentolate],duration of effect,"[1]; eye drops, some effects may persist for up to several days",8 h
CC(C)[N+]1(C)[C@@H]2CC[C@H]1C[C@@H](OC(=O)C(CO)c1ccccc1)C2 (stereo partly shown) [ipratropium],clinical response,[2],partial yet clinically meaningful response
same,time until effect of the spray wore off,[2],2 to 8 h
CN1[C@@H]2CC[C@H]1C[C@@H](OC(=O)C(CO)c1ccccc1)C2 (stereo partly shown) [atropine],time of peak mydriasis effect,[1]; in vivo,30 to 40 min
same,effect after 30 minutes,[3],No effect was noted
same,time results first observed after initial treatment,[3],three
"CCN(Cc1ccncc1)C(=O)C(CO)c1ccccc1 (stereo not shown) [tropicamide, N-ethyl-N-(4-pyridylmethyl) tropamide]",time local numbness first noticed,[4]; human,20 min
same,change in pupil size,[4],no obvious change in pupil size
same,taste tolerance,[5],complained of the taste of the medication
same,"effect on heart rate (tachycardia), confusion, somnolence",[6],"did not affect heart rate (cause tachycardia), confusion, or somnolence"
same,photosensitivity complaints,[6],No complaint of photosensitivity
same,side effects or complications,[6],None of the patients developed side effects or complications
same,side effects,[7],No side effects were observed
same,tolerance,[8],acceptable
"C[N+]1(C)CCC(OC(=O)C(O)(c2ccccc2)C2CCCC2)C1 (stereo not drawn) [glycopyrrolate, 3-(α-cyclopentylmandeloy(osy)-1,1-dimethylpyrrolidinium bromide]",control of excessive sialorrhea,[9],effective
same,treated individuals with substantial adverse systemic side effects requiring discontinuation,[9]; systemic administration,approximately 20%
